Test results taken from patent publication US20260125374A1, “PI3K-ALPHA INHIBITORS AND METHODS OF MAKING AND USING THE SAME” (Relay Therapeutics, Inc., priority 2021, published 2026).
In brackets after ≈: the same amount, converted by molar mass.

Experiments:
Format in all cases: physicochemical
[1] = Solubility study at 37° C. (buffer, water, bio-relevant media, MeOH/DCM); conditions: listed as I-4 Form A
Protocol: In addition, residual solids were checked by chiral HPLC to confirm whether racemization occurs.
Accurate 4 mg of I-1 Form A, 5.13 mg of I-3 Form A, 4.63 mg of I-4 Form A was weighed into a 8 mL glass vial, respectively. 2 mL of solubility medium was added. The salt amount used is equivalent to 4 mg anhydrous free form. Obtained suspensions/solutions were stirred at 37° C. at 400 rpm for 2 hours and 24 hours and then centrifuged at 37° C. at 14,000 rpm for 5 min. Supernatants were analyzed by UPLC and PH meter for solubility and pH value, respectively. Residual solids (wet cakes) were characterized by XRPD to determine physical form and then analyzed by HPLC for chiral purity.

Hygroscopicity by DVS = assay: Hygroscopicity by DVS
Protocol: • Method 1 (for I-1 Form A and I-3 Form A) • Instrument Intrinsic, Advantage or Adventure • Total gas flow 200 sccm • Oven temperature 25° C. • Solvent Water • Method Cycle: 40-0-95-0-40% RH • Stage Step: 10% • Equilibrium: 0.002 dm/dt (%/min) • Minimum dm/dt stability duration: 60 min • Maximum dm/dt stage time: 360 min • Method 2 (for I-4 Form A) • Instrument Intrinsic, Advantage or Adventure • Total gas flow 200 sccm • Oven temperature 25° C. • Solvent Water • Method Cycle: 40-95-0-95-40% RH • Stage Step: 10% • Equilibrium: 0.002 dm/dt (%/min) • Minimum dm/dt stability duration: 60 min • Maximum dm/dt stage time: 360 min
I-1 Form A is hygroscopic. It absorbs about 5.5% water by weight from 40% RH to 95% RH. […] It absorbs about 40% water by weight from 40% RH to 95% RH. Form changed after the DVS test. […] It starts to absorb water when RH>40% and potential hydrate form generates at high humidity based on DVS data. The sorption and desorption are reversible.
Water sorption and desorption behavior of I-1 Form A, I-3 Form A, and I-4 Form A was investigated by DVS at 25° C. with a cycle of 40-0-95-0-40% RH, dm/dt 0.002, min. equilibration time 60 min and max. equilibration time 360 min. XRPD was measured after the DVS test to determine form change.

[2] = Salt screening (XRPD, chiral purity of hits)
Protocol: Based on the pKa of I-1 free form, 23 counter ions were selected as salt/cocrystal forming agents. Methanol, acetone and isopropyl acetate were used as screening solvents. 1.0 equivalent of selected counter ions/coformers was applied for salt screening. Slurry equilibration, slow evaporation and anti-solvent addition were used as crystallization methods. In total, about 70 screening experiments were conducted.
About 50 mg of I-1 Form A were added to a suitable amount of solvent and 1.0 equivalent of counter ions were added under stirring at 50° C. for 2 hours and then at 25° C. for at least 12 hours. MeOH, acetone and IPAc were used as screening solvents.
Obtained suspensions were taken out and centrifuged. Solids obtained were analyzed by XRPD and salt screening results were summarized in Table 5.1, Table 5.2, and Table 5.3.

[3] = DVS 25° C., 0% RH, listed as I-4 Form A
[4] = DVS 25° C., 10% RH, listed as I-4 Form A
[5] = DVS 25° C., 20% RH, listed as I-4 Form A
[6] = DVS 25° C., 30% RH, listed as I-4 Form A
[7] = DVS 25° C., 40% RH, listed as I-4 Form A
[8] = DVS 25° C., 50% RH, listed as I-4 Form A
[9] = DVS 25° C., 60% RH, listed as I-4 Form A
[10] = DVS 25° C., 70% RH, listed as I-4 Form A
[11] = DVS 25° C., 80% RH, listed as I-4 Form A
[12] = DVS 25° C., 90% RH, listed as I-4 Form A
[13] = DVS 25° C., 95% RH, listed as I-4 Form A
[14] = crystalline hits of salt screening, listed as I-4 Form A

## N#Cc1c(-c2cc(NC(=O)c3cc(F)cc(C(F)(F)F)c3)c3c(c2)C(=O)N[C@H]3c2cc(F)ccc2Cl)ccc2ncnn12 [Compound I-4]
[1]; FaSSIF-V1, pH 6.5, 2 hours
  Chiral purity: purity: 98.3%)
  Solubility: 44.1 μg/mL(chiral
[1]; FaSSIF-V1, pH 6.5, 24 hours
  Chiral purity (solids): 99.3%)
  Solubility: 0.4 µg/mL (≈ 0.657 µM)
  pH of supernatant: 6.15
[1]; FeSSIF-V1, pH 5.0, 2 hours
  Chiral purity: purity: 97.7%)
  Solubility: 239.1 μg/mL(chiral
[1]; FeSSIF-V1, pH 5.0, 24 hours
  Chiral purity (solids): 85.2%)
  Solubility: 16.2 µg/mL (≈ 26.6 µM)
  pH of supernatant: 4.84
[1]; MeOH/DCM (1:2, v/v), 2 hours
  Solubility: >111000 µg/mL
[1]; MeOH/DCM (1:2, v/v), 24 hours
  Solubility: >111000 µg/mL
[1]; SGF, pH 2.0, 2 hours
  Solubility: 3.2 µg/mL (≈ 5.26 µM)
[1]; SGF, pH 2.0, 24 hours
  Chiral purity (solids): 99.2%)
  Solubility: 2.6 µg/mL (≈ 4.27 µM)
  pH of supernatant: 1.89
[1]; Water, 24 hours
  Chiral purity (solids): 99.2%)
  pH of supernatant: 2.52
[1]
  solubility in MeOH/DCM (1:2, v/v): > 111000 µg/mL
[1]; pH 2, HCl, 24 hours
  Chiral purity (solids): 99.3%)
  pH of supernatant: 1.89
Hygroscopicity by DVS; [3]
  1st Desorp. (%): 0.01%
  2nd Sorp. (%): 0.01%
Hygroscopicity by DVS; [4]
  1st Desorp. (%): 1.52%
  2nd Sorp. (%): 0.98%
Hygroscopicity by DVS; [5]
  1st Desorp. (%): 2.78%
  2nd Sorp. (%): 1.76%
Hygroscopicity by DVS; [6]
  1st Desorp. (%): 3.61%
  2nd Sorp. (%): 2.64%
Hygroscopicity by DVS; [7]
  1st Desorp. (%): 4.52%
  1st Sorp. (%): 1.62%
  2nd Desorp. (%): 4.51%
  2nd Sorp. (%): 3.57%
Hygroscopicity by DVS; DVS 25° C., 50% RH
  1st Desorp. (%): 5.78%
  2nd Sorp. (%): 4.63%
Hygroscopicity by DVS; [8]
  1st Sorp. (%): 3.50%
  2nd Desorp. (%): 5.71%
Hygroscopicity by DVS; DVS 25° C., 60% RH
  1st Desorp. (%): 7.60%
  2nd Sorp. (%): 6.22%
Hygroscopicity by DVS; [9]
  1st Sorp. (%): 4.75%
  2nd Desorp. (%): 7.44%
Hygroscopicity by DVS; DVS 25° C., 70% RH
  1st Desorp. (%): 11.14%
  2nd Sorp. (%): 9.34%
Hygroscopicity by DVS; [10]
  1st Sorp. (%): 6.87%
  2nd Desorp. (%): 10.54%
Hygroscopicity by DVS; DVS 25° C., 80% RH
  1st Desorp. (%): 16.84%
  2nd Sorp. (%): 15.03%
Hygroscopicity by DVS; [11]
  1st Sorp. (%): 12.16%
  2nd Desorp. (%): 17.11%
Hygroscopicity by DVS; DVS 25° C., 90% RH
  1st Desorp. (%): 31.04%
  2nd Sorp. (%): 27.39%
Hygroscopicity by DVS; [12]
  1st Sorp. (%): 25.12%
  2nd Desorp. (%): 32.94%
Hygroscopicity by DVS; DVS 25° C., 95% RH
  1st Desorp. (%): 42.35%
  2nd Sorp. (%): 44.74%
Hygroscopicity by DVS; [13]
  1st Sorp. (%): 42.35%
  2nd Desorp. (%): 44.74%
Hygroscopicity by DVS; DVS 25° C., cycle 40-0-95-0-40% RH, listed as I-4 Form A
  XRPD after DVS test: Form changed
Hygroscopicity by DVS; DVS at 25° C., listed as I-4 Form A
  hygroscopicity: very hygroscopic
Hygroscopicity by DVS; from 40% RH to 95% RH, 25° C., listed as I-4 Form A
  water absorbed: about 40 % water by weight
Hygroscopicity by DVS; listed as I-4 Form A
  form after the DVS test (XRPD): Form changed
[2]; 1.0 equiv. methanesulfonic acid, Acetone/MTBE
  Salt screening result (anti-solvent): + (I-4 Form A) (Salt hits)
[2]; anti-solvent, 1.0 equiv. methanesulfonic acid, Acetone/MTBE
  Chiral purity of salt screening solid: Chiral purity: 98.3%
[2]; [14]
  Chiral purity (by HPLC): 98.3%
  Crystallinity (By XRPD): Low
